Holding throughout (format): cell-based
Assay [1] has as its target Melanocortin receptor 4 (Homo sapiens, UniProt P32245). In words: Displacement of [125I]NDP-MSH from human MC4R expressed in HEK293 cells. Background: In a radioligand displacement assay an active substance lowers the binding of a labelled ligand.
For assay [2], the target named is Melanocyte-stimulating hormone receptor (Homo sapiens) (UniProt Q01726). Kind of assay: Inhibition of [125I]NDP-MSH binding to human MC1R expressed in HEK293 cells. The following applies: concentration not given here.
Assay [3] deals with Melanocortin receptor 3 (Homo sapiens, UniProt P41968). In words: Displacement of [125I]NDP-MSH from human MC3R expressed in HEK293 cells.
Assay [4] addresses Melanocortin receptor 5 (Homo sapiens, UniProt P33032). In words: Displacement of [125I]NDP-MSH from human MC5R expressed in HEK293 cells.

Some results are limits rather than exact numbers.

Melanocortin receptor 4, sequence (P32245 whole entry): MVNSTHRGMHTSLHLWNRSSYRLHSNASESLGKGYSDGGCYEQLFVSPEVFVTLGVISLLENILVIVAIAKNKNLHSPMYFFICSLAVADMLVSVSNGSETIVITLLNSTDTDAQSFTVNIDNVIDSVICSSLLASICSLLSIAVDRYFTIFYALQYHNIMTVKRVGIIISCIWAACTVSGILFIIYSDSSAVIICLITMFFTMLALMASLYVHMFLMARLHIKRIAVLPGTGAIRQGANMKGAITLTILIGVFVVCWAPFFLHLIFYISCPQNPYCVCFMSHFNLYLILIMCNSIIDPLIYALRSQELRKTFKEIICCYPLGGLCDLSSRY
Melanocortin receptor 5, sequence (P33032 whole entry): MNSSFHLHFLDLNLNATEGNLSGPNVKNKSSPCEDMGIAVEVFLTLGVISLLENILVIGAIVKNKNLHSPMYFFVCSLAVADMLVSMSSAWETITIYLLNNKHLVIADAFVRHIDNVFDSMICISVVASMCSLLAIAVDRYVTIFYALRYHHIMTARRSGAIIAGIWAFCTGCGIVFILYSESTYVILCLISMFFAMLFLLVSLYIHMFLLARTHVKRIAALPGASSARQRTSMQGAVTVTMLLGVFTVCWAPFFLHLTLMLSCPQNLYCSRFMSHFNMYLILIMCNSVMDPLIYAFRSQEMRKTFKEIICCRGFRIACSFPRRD
Melanocortin receptor 3, sequence (P41968 whole entry): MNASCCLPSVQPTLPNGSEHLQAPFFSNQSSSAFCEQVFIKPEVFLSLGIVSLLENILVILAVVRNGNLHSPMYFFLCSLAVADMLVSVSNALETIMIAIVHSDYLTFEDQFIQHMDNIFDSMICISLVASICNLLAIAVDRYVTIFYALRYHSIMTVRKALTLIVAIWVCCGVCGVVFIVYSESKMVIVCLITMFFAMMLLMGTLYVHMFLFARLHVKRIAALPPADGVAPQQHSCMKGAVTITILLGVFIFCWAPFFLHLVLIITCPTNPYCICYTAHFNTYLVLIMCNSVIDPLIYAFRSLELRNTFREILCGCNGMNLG
Melanocyte-stimulating hormone receptor (Homo sapiens), sequence (Q01726 whole entry, looked up): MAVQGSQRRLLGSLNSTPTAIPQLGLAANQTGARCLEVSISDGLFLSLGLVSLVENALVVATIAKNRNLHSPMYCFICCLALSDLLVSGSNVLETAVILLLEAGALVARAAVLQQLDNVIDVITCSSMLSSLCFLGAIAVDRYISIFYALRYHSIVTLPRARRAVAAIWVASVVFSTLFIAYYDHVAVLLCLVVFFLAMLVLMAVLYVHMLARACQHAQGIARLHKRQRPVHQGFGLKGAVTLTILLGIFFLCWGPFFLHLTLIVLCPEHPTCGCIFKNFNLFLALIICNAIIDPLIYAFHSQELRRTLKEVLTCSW

In general, Ki refers to a measure of affinity in units of concentration, obtained from inhibition or displacement. A low value points to higher affinity. For `CC(C)C[C@H](N)c1cc(C(F)(F)F)ccc1N1CCN(C(=O)CCc2csc3ccccc23)CC1`, the affinity in assay [1] corresponds to a Ki of 2.3 µM. Compound `CCC(C)[C@H](NCc1ccccc1F)c1cc(C(F)(F)F)ccc1N1CCN(C(=O)CCc2ccc(Cl)cc2Cl)CC1` (stereo partly specified) had a Ki in assay [1] greater than 10 µM.

The compound `CCC(C)[C@H](N)c1cc(C(F)(F)F)ccc1N1CCN(C(=O)CCc2ccc(OC)c(OC)c2Cl)CC1` (stereo partly specified) registered a Ki in assay [1] of 2.5 µM.

In the case of `CC(C)C(N)c1cc(C(F)(F)F)ccc1N1CCN(C(=O)CCc2ccc(Cl)cc2Cl)CC1` (stereo unspecified), the affinity in assay [1] corresponds to a Ki of 0.14 µM. On the same count and under the same terms, as for `CCC(C)[C@H](NC[C@@H]1CCCN1)c1cc(C(F)(F)F)ccc1N1CCN(C(=O)CCc2ccc(Cl)cc2Cl)CC1` (stereo partly specified), the figure is 0.064 µM; as for `Cc1[nH]c2ccccc2c1CCC(=O)N1CCN(c2ccc(C(F)(F)F)cc2[C@@H](N)CC(C)C)CC1`, 1.6 µM. Still for that read-out and setting: as for `CC(C)C[C@H](N)c1cc(C(F)(F)F)ccc1N1CCN(C(=O)CCc2ccccc2Cl)CC1`, the figure is 1.7 µM.

With `CCCCC(N)c1cc(C(F)(F)F)ccc1N1CCN(C(=O)CCc2ccc(Cl)cc2Cl)CC1` (stereo unspecified), the Ki in assay [1] worked out at 0.19 µM.

On to `NCCNC(COCc1ccccc1)c1cc(F)ccc1N1CCN(C(=O)CCc2ccc(Cl)cc2Cl)CC1` (stereo unspecified), for which the Ki in assay [1] was 0.4 µM.

Regarding `CC(C)C[C@H](NC(=O)CCN)c1cc(C(F)(F)F)ccc1N1CCN(C(=O)CCc2ccc(Cl)cc2Cl)CC1`, the inhibition constant (Ki) in assay [1] is 0.025 µM. As to `COc1ccc(CCC(=O)N2CCN(c3ccc(C(F)(F)F)cc3[C@@H](N)CC(C)C)CC2)cc1OC`, the Ki in assay [1] worked out at 4.3 µM. Still for that read-out and setting: the same measure for `CC(C)C[C@H](N)c1cc(C(F)(F)F)ccc1N1CCN(C(=O)CCc2cccs2)CC1`: 4.6 µM.

Consider `CC(C)C[C@H](N)c1cc(C(F)(F)F)ccc1N1CCN(C(=O)CCc2ccc3c(c2)OCO3)CC1`, for which the affinity in assay [1] corresponds to a Ki of 1.5 µM. Turning to `CC(C)C[C@H](N)c1cc(C(F)(F)F)ccc1N1CCN(C(=O)CCc2c(Cl)cccc2Cl)CC1`, the Ki in assay [1] worked out at 2.6 µM. In assay [1], `CCC(C)[C@H](NCC1CCCO1)c1cc(C(F)(F)F)ccc1N1CCN(C(=O)CCc2ccc(Cl)cc2Cl)CC1` (stereo partly specified) returned a Ki of 0.78 µM. Compound `CCC(C)[C@H](NCCN)c1cc(C(F)(F)F)ccc1N1CCN(C(=O)CCc2ccc(Cl)cc2Cl)CC1` (stereo partly specified) came in with a Ki in assay [1] of 0.056 µM. On the same count and under the same terms, the same measure for `CC[C@H](C)C(N)c1cc(C(F)(F)F)ccc1N1CCN(C(=O)CCc2ccc(Cl)cc2Cl)CC1` (stereo partly specified): 0.075 µM; for `CCC(C)[C@H](NC[C@H]1CCCN1)c1cc(C(F)(F)F)ccc1N1CCN(C(=O)CCc2ccc(Cl)cc2Cl)CC1` (stereo partly specified): 0.11 µM; for `CCOCC(NC(=O)CCN)c1cc(F)ccc1N1CCN(C(=O)CCc2ccc(Cl)cc2Cl)CC1` (stereo unspecified): 0.3 µM. As to `CCN[C@@H](CC(C)C)c1cc(C(F)(F)F)ccc1N1CCN(C(=O)CCc2ccc(Cl)cc2Cl)CC1`, in assay [1], the Ki turned out to be 0.17 µM. On the same count and under the same terms, the same measure for `COc1ccccc1CCC(=O)N1CCN(c2ccc(C(F)(F)F)cc2[C@@H](N)CC(C)C)CC1`: 1.4 µM. The term inhibition denotes how much of the control response was suppressed. Consider `CC(C)C[C@H](N)c1cccc(F)c1N1CCN(C(=O)CCc2ccc(Cl)cc2Cl)CC1`, for which the values for the Ki in assay [1], in assay [3] and in assay [4] were 0.11 µM, 1.4 µM and 1.2 µM, respectively. In addition, the inhibition in assay [2] came to 21%.

Compound `NC(COCc1ccccc1)c1cc(F)ccc1N1CCN(C(=O)CCc2ccc(Cl)cc2Cl)CC1` (stereo unspecified) displayed a Ki in assay [1] of 1 µM. The same measure, in the same setting: the same measure for `CC(C)C[C@H](N)c1cc(C(F)(F)F)ccc1N1CCN(C(=O)CCc2ccccc2O)CC1`: 3.3 µM; for `COc1ccc(CCC(=O)N2CCN(c3ccc(C(F)(F)F)cc3[C@@H](N)CC(C)C)CC2)cc1`: 0.35 µM. On the same count and under the same terms, as for `CCC(C)[C@H](NCc1ccccc1)c1cc(C(F)(F)F)ccc1N1CCN(C(=O)CCc2ccc(Cl)cc2Cl)CC1` (stereo partly specified), the figure is 5.9 µM. Consider `COc1cc(OC)c(OC)cc1CCC(=O)N1CCN(c2ccc(C(F)(F)F)cc2[C@@H](N)CC(C)C)CC1`, for which the Ki in assay [1] was found to be 6.1 µM. In assay [1], `CC(C)C[C@H](N)c1cc(C(F)(F)F)ccc1N1CCN(C(=O)CCc2ccccc2F)CC1` showed a Ki of 2.8 µM.

The record behind these values is ChEMBL document CHEMBL1149513, “Arylpropionylpiperazines as antagonists of the human melanocortin-4 receptor” (Bioorg Med Chem Lett, 2006).
